Data on 27 compounds can be found in patent US20180118718A1, “Substituted Quinoxaline Derivatives” (Selvita S.A., priority 2015, published 2018).

For this experiment, the target named is T1, Human recombinant His-tagged PFKFB3 (Homo sapiens, UniProt Q16875).
T1 construct: His; made in house
T1 sequence (Q16875 whole entry): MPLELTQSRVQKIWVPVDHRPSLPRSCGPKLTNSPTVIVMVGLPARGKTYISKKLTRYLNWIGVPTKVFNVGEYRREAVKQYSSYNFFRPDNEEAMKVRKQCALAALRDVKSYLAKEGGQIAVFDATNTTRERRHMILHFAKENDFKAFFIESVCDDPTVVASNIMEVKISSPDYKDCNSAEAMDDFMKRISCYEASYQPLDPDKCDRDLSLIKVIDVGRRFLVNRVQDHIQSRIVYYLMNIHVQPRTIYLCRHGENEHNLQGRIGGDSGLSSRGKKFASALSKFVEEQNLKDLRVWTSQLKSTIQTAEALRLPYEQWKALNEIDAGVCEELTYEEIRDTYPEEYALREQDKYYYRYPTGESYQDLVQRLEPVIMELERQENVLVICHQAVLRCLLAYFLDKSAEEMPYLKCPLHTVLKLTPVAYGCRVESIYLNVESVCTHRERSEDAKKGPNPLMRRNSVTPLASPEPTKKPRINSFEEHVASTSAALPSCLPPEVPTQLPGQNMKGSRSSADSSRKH
Briefly: PFKFB3 IC50 Determination Assay (in vitro kinase assay, modified ADP-Glo system). The experiment is classed as biochemical. Particulars: ATP 20 μM and fructose-6-phosphate 2 μM (Km), 25 nM PFKFB3, 2 h, rt, ADP-Glo luminescence. Here is the method: PFKFB3 IC50 Determination Assay
In vitro kinase assay used to determine IC50 values for tested inhibitors is based on a modified ADP-Glo™ system (Promega) and consists of two parts:
1. Kinase reaction—performed in optimized conditions. At this step PFKFB3 phosphorylates its substrate Fructose-6-phosphate using ATP as a source of phosphate to produce Fructose-2,6-bisphosphate and ADP. Reaction is performed at Km values for ATP and substrate using optimized buffer composition and time of the reaction. Human recombinant His-tagged PFKFB3 (PFKFB3 BATCH II SEC) with confirmed activity is produced and purified in-house. 2. Detection of ADP as a product of the reaction using ADP-Glo™ system. This part is conducted by using the commercially available kit ADP-Glo™ Kinase Assay (Promega, cat. No# V9103) according to manufacturer's instruction, modified by 5x dilutions of assay reagents (both ADP-Glo™ Reagent and Kinase Detection Solution).
Test compounds are dissolved in DMSO and then transferred to the V-bottom 96-well plate.
15 μL per well of Mix 1 is transferred to assay wells of 96-well white plate. […] Total reaction volume is 30 μL per well. Samples are tested in duplicates. Final concentration of DMSO in the reaction is 6.7%. Conditions needed for performing PFKFB3 (PFKFB3 BATCH II SEC) in vitro kinase assay are given below:
This protocol is based on Technical Bulletin, ADP-Glo™ Kinase Assay (Promega) and is adapted to 96-well plate containing 30 μL reaction mixture:
30 μL of 5x diluted ADP-Glo™ Reagent is added to each well of 96-well plate containing 30 μL of reaction mixture. The plate is incubated for 90 minutes on a shaker at RT. 60 μL of 5x diluted Kinase Detection Solution is added to each well of 96-well plate containing 60 μL of the solution (ratio of kinase reaction volume to ADP-Glo™ Reagent volume to Kinase Detection Solution volume is maintained at 1:1:2). Plate is incubated for 40 minutes on a shaker at RT, protected from light. Luminescence is measured in the plate reader Synergy 2 (BioTek).
Luminescent readouts for compounds tested in 10 concentrations (routinely from 100 μM to […], […] serial dilutions) in duplicates, as well as for positive control, are first normalized to no-substrate negative control by its subtraction. In the next step, % of normalized positive control is calculated for each data point and plotted against test compound concentration:
% of control percent of positive control normalized to no-substrate negative control Lumcpd luminescence of test compound Lumneg luminescence of no-substrate negative control Lumpos luminescence of positive control
IC50 parameter is determined by the GraphPad Prism 5.0 software [log(inhibitor) vs. response −Variable slope (four parameters)].
Consider `CS(=O)(=O)c1ccncc1Nc1cc(-c2cccc(-c3cn[nH]n3)c2)c2nccnc2c1` [Example 48, N-(4-Methanesulfonylpyridin-3-yl)-8-[3-(1H-1,2,3-triazol-4-yl)phenyl]quinoxalin-6-amine], for which the IC50 was 10 to 100 µM.

Turning to `Cc1cccc(-c2cc(Nc3cnccc3S(C)(=O)=O)cc3nccnc23)c1` [Example 51, N-(4-Methanesulfonylpyridin-3-yl)-8-(3-methylphenyl)quinoxalin-6-amine], the IC50 was 1 to 10 µM.

Take `CNc1ccc(S(C)(=O)=O)c(Nc2cc(-c3ccc4ccn(C)c4c3)c3nccnc3c2)c1` [Example 57, 4-Methanesulfonyl-N1-methyl-N3-[8-(1-methyl-1H-indol-6-yl)quinoxalin-6-yl]benzene-1,3-diamine]: the IC50 lay within 0.001 to 1 µM.

Regarding `CS(=O)(=O)c1ccncc1Nc1cc(-c2ccc3occ(CCl)c3c2)c2nccnc2c1` [Example 58, 8-[3-(Chloromethyl)-1-benzofuran-5-yl]-N-(4-methanesulfonylpyridin-3-yl)quinoxalin-6-amine], the IC50 is 10 to 100 µM.

Regarding `Cn1ccc2ccc(-c3cc(Nc4cnccc4S(C)(=O)=O)cc4nccnc34)c(F)c21` [Example 59, 8-(7-Fluoro-1-methyl-1H-indol-6-yl)-N-(4-methanesulfonylpyridin-3-yl)quinoxalin-6-amine], the IC50 lay within 0.001 to 1 µM.

Consider `CS(=O)(=O)c1ccncc1Nc1cc(-c2ccc3nc[nH]c3c2)c2nccnc2c1` [Example 61, 8-(1H-1,3-Benzodiazol-5-yl)-N-(4-methanesulfonylpyridin-3-yl)quinoxalin-6-amine], for which the IC50 fell in the range of 10 to 100 µM.

As to `CCc1cccc(-c2cc(Nc3cnccc3S(C)(=O)=O)cc3nccnc23)c1` [Example 65, 8-(3-Ethylphenyl)-N-(4-methanesulfonylpyridin-3-yl)quinoxalin-6-amine], the IC50 fell in the range of 1 to 10 µM.

On to `Cc1ccc(N)c(-c2cc(Nc3cnccc3S(C)(=O)=O)cc3nccnc23)c1` [Example 66, 8-(2-Amino-5-methylphenyl)-N-(4-methanesulfonylpyridin-3-yl)quinoxalin-6-amine], for which the IC50 was in the range of 1 to 10 µM.

For the compound `Cc1ccc(O)c(-c2cc(Nc3cnccc3S(C)(=O)=O)cc3nccnc23)c1` [Example 67, 2-{7-[(4-Methanesulfonylpyridin-3-yl)amino]quinoxalin-5-yl}-4-methylphenol], the IC50 is 1 to 10 µM.

`Cn1ccc2ccc(-c3cc(Nc4cnccc4-c4nn[nH]n4)cc4nccnc34)cc21` [Example 68, 8-(1-Methyl-1H-indol-6-yl)-N-[4-(1H-1,2,3,4-tetrazol-5-yl)pyridin-3-yl]quinoxalin-6-amine]: the IC50 is 0.001 to 1 µM.

Turning to `Cn1ccc2ccc(-c3cc(Nc4cnccc4Cl)cc4nccnc34)cc21` [Example 69, N-(4-Chloropyridin-3-yl)-8-(1-methyl-1H-indol-6-yl)quinoxalin-6-amine], the IC50 lay in the range of 0.001 to 1 µM.

As for `Cc1coc2ccc(-c3cc(Nc4c[n+]([O-])ccc4S(C)(=O)=O)cc4nccnc34)cc12` [Example 72, 4-Methanesulfonyl-3-{[8-(3-methyl-1-benzofuran-5-yl)quinoxalin-6-yl]amino}pyridin-1-ium-1-olate], the IC50 was in the range of 0.001 to 1 µM.

For the compound `Cn1ccc2cc(F)c(-c3cc(Nc4cnccc4S(C)(=O)=O)cc4nccnc34)cc21` [Example 73, 8-(5-Fluoro-1-methyl-1H-indol-6-yl)-N-(4-methanesulfonylpyridin-3-yl)quinoxalin-6-amine], the IC50 fell in the range of 0.001 to 1 µM.

As for `COc1ccc(C)cc1-c1cc(Nc2cnccc2S(C)(=O)=O)cc2nccnc12` [Example 74, N-(4-Methanesulfonylpyridin-3-yl)-8-(2-methoxy-5-methylphenyl)quinoxalin-6-amine], the IC50 was in the range of 1 to 10 µM.

Consider `Cc1ccc(-c2cc(Nc3cnccc3S(C)(=O)=O)cc3nccnc23)cc1N` [Example 75, 8-(3-Amino-4-methylphenyl)-N-(4-methanesulfonylpyridin-3-yl)quinoxalin-6-amine], for which the IC50 lay in the range of 0.001 to 1 µM.

On to `Cn1ccc2ccc(-c3cc(Nc4ncccc4S(C)(=O)=O)cc4nccnc34)cc21` [Example 81, N-(3-Methanesulfonylpyridin-2-yl)-8-(1-methyl-1H-indol-6-yl)quinoxalin-6-amine], for which the IC50 fell in the range of 0.001 to 1 µM.

`CC(=O)N1CCN(c2ccncc2Nc2cc(-c3ccc4ccn(C)c4c3)c3nccnc3c2)CC1` [Example 82, 1-[4-(3-{[8-(1-Methyl-1H-indol-6-yl)quinoxalin-6-yl]amino}pyridin-4-yl)piperazin-1-yl]ethan-1-one]: the IC50 was 0.001 to 1 µM.

Consider `Cn1cnc(-c2ccncc2Nc2cc(-c3ccc4ccn(C)c4c3)c3nccnc3c2)c1` [Example 83, N-[4-(1-Methyl-1H-imidazol-4-yl)pyridin-3-yl]-8-(1-methyl-1H-indol-6-yl)quinoxalin-6-amine], for which the half-maximal inhibitory concentration (IC50) is 0.001 to 1 µM.

`Cn1ccc2ccc(-c3cc(Nc4cncc5c4OCCN5)cc4nccnc34)cc21` [Example 84, 8-(1-Methyl-1H-indol-6-yl)-N-{2H,3H,4H-pyrido[4,3-b][1,4]oxazin-8-yl}quinoxalin-6-amine]: the IC50 was in the range of 0.001 to 1 µM.

For `Cn1ccc2ccc(-c3cc(Nc4c[n+]([O-])ccc4C#N)cc4nccnc34)cc21` [Example 90, 4-Cyano-3-{[8-(1-methyl-1H-indol-6-yl)quinoxalin-6-yl]amino}pyridin-1-ium-1-olate], the IC50 was in the range of 1 to 10 µM.

As to `CN(c1cc(-c2ccc3ccn(C)c3c2)c2nccnc2c1)c1cnccc1C#N` [Example 91, 3-{Methyl[8-(1-methyl-1H-indol-6-yl)quinoxalin-6-yl]amino}pyridine-4-carbonitrile], the IC50 lay in the range of 1 to 10 µM.

Consider `Cn1nccc1-c1ccc(S(C)(=O)=O)c(Nc2cc(-c3ccc4ccn(C)c4c3)c3nccnc3c2)c1` [Example 93, N-[2-Methanesulfonyl-5-(1-methyl-1H-pyrazol-5-yl)phenyl]-8-(1-methyl-1H-indol-6-yl)quinoxalin-6-amine], for which the IC50 was in the range of 1 to 10 µM.

As for `Cn1ccc2ccc(-c3cc(Nc4cc(-c5ncco5)ccc4S(C)(=O)=O)cc4nccnc34)cc21` [Example 94, N-[2-Methanesulfonyl-5-(1,3-oxazol-2-yl)phenyl]-8-(1-methyl-1H-indol-6-yl)quinoxalin-6-amine], the IC50 fell in the range of 0.001 to 1 µM.

Regarding `CN(c1cc(-c2ccc3ccn(C)c3c2)c2nccnc2c1)c1cnccc1C(N)=O` [Example 95, 3-{Methyl[8-(1-methyl-1H-indol-6-yl)quinoxalin-6-yl]amino}pyridine-4-carboxamide], the IC50 fell in the range of 1 to 10 µM.

As for `Cn1ccc2ccc(-c3cc(Nc4cnccc4C(=O)Nc4ccccc4)cc4nccnc34)cc21` [Example 96, 3-{[8-(1-Methyl-1H-indol-6-yl)quinoxalin-6-yl]amino}-N-phenylpyridine-4-carboxamide], the concentration for half-maximal inhibition (IC50) fell in the range of 0.001 to 1 µM.

For `Cc1coc2ccc(-c3cc(Nc4cc(N)ccc4S(C)(=O)=O)cc4nccnc34)cc12` [Example 102, 6-Methanesulfonyl-N1-[8-(3-methyl-1-benzofuran-5-yl)quinoxalin-6-yl]benzene-1,3-diamine], the IC50 fell in the range of 0.001 to 1 µM.

In the case of `Cc1coc2ccc(-c3cc(Nc4cc([N+](=O)[O-])ccc4S(C)(=O)=O)cc4nccnc34)cc12` [Example 103, N-(2-methanesulfonyl-5-nitrophenyl)-8-(3-methyl-1-benzofuran-5-yl)quinoxalin-6-amine], the IC50 lay in the range of 1 to 10 µM.
